Tests used:
C4-2 = test: 2D CellTiter-Glo cell viability assay; format: cell-based, human
Experimental: (§1) CellTiter-Glo® 2.0 Luminescent cell viability assay reagent was purchased from Promega and 22Rv1, LASCPC-01, C4-2, C4-2B and NCI-H660, DU-145, PC-3 and LNCap cell lines were obtained from ATCC and a clinical core facility at Huntsman Cancer Institute. […] The results of cell viability were obtained and IC50 values were calculated (see Table 5, below) showing sub-micromolar cell killing of these prostate cancer cells.

Prostate cancer cells = test: Colony formation assay 2; format: cell-based; conditions: 0.123 to 10 μM for 72 hours
[1] = test system: pCDK9, pSer2, N-MYC, C-MYC and MCL-1; test: Target modulation in prostate cancer patient samples; format: cell-based; conditions: newly diagnosed and resistant prostate cancer patient samples
LASCPC-01 = test: Annexin V/7-AAD apoptosis assay; format: cell-based
CDK2/cyclinA [2] = biological target: T1, CDK2/cyclinA (Homo sapiens, UniProt P24941); test: CDK family kinase profiling, radioisotope-based assay (33P); format: biochemical; set-up: purchased Reaction Biology; conditions: read-out: 10-dose IC50
Experimental: (§2) CDKs family kinases profiling assays were performed with DiscoveRx Matrix of Kds KINOMEscan (KdELECT) and Reaction Biology using miniaturized radioisotope-based assay platform (^33P). IC50 value estimated based on the best curve fitting available.

CDK3/cyclinE [3] = biological target: T2, CDK3/cyclinE (Homo sapiens, UniProt Q00526); test: as above; format: biochemical; set-up: purchased Reaction Biology; conditions: read-out: 10-dose IC50
Experimental: as §2

human P450 isozyme 2D6 = biological target: T3, human P450 isozyme 2D6 (Homo sapiens, UniProt P10635); test: P450 isozyme inhibition assay (baculosomes); format: in vitro ADME; conditions: P450 2D6
T3 construct: made in house; host or cells: insect cells infected with recombinant baculovirus
Experimental: (§3) P450 baculosome reagents (i.e., microsomes), were prepared from insect cells infected with recombinant baculovirus containing a human P450 isozyme and a rabbit NAPDH-P450 reductase since only a single P450 isozyme is expressed over human liver microsomes (HLM).

human P450 isozyme 2C19 = biological target: T4, human P450 isozyme 2C19 (Homo sapiens, UniProt P33261); test: P450 isozyme inhibition assay (baculosomes); format: in vitro ADME; conditions: P450 2C19
T4 construct: host or cells: insect cells infected with recombinant baculovirus
Experimental: as §3

human P450 isozyme 3A4 = biological target: T5, human P450 isozyme 3A4 (Homo sapiens, UniProt P08684); test: P450 isozyme inhibition assay (baculosomes); format: in vitro ADME; conditions: P450 3A4
T5 construct: made in house; host or cells: insect cells infected with recombinant baculovirus
T5 sequence (P08684 whole entry): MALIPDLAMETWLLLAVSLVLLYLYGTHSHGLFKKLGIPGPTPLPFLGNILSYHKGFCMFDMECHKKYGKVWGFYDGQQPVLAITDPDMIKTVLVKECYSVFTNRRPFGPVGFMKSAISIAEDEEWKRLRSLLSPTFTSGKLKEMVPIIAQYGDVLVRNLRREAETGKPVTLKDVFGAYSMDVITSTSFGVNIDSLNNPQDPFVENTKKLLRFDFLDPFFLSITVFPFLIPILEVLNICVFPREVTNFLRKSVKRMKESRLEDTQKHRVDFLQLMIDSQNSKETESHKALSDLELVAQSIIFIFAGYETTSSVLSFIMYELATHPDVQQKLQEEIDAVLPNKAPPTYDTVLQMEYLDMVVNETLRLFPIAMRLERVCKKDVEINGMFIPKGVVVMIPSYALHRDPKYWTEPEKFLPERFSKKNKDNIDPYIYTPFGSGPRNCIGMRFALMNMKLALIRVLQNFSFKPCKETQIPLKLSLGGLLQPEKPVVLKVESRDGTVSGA
Experimental: as §3

human P450 isozyme 2C9 = biological target: T6, human P450 isozyme 2C9 (Homo sapiens, UniProt P11712); test: P450 isozyme inhibition assay (baculosomes); format: in vitro ADME; conditions: P450 2C9
T6 construct: host or cells: insect cells infected with recombinant baculovirus
T6 sequence (P11712 whole entry): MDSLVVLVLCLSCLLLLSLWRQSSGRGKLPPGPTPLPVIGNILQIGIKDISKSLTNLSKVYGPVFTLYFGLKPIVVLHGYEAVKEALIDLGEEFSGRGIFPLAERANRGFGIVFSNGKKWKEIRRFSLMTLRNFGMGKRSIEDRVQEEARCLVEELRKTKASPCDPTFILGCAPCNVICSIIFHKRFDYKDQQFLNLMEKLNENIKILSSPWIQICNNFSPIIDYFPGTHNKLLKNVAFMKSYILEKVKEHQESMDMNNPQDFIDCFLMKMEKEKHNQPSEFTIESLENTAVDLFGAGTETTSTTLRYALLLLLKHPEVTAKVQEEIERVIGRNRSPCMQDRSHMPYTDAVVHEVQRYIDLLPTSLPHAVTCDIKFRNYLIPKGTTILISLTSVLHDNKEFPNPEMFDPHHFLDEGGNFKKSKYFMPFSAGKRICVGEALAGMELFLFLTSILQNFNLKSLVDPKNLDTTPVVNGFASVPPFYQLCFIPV
Experimental: as §3

human P450 isozyme 1A2 = biological target: T7, human P450 isozyme 1A2 (Homo sapiens, UniProt P05177); test: P450 isozyme inhibition assay (baculosomes); format: in vitro ADME; conditions: P450 1A2
T7 construct: host or cells: insect cells infected with recombinant baculovirus
Experimental: as §3

ERK8 = ERK8 (Homo sapiens, UniProt Q8TD08); test: scanMAX panel and Kd follow-up; format: binding
Sequence of ERK8 (Q8TD08 whole entry): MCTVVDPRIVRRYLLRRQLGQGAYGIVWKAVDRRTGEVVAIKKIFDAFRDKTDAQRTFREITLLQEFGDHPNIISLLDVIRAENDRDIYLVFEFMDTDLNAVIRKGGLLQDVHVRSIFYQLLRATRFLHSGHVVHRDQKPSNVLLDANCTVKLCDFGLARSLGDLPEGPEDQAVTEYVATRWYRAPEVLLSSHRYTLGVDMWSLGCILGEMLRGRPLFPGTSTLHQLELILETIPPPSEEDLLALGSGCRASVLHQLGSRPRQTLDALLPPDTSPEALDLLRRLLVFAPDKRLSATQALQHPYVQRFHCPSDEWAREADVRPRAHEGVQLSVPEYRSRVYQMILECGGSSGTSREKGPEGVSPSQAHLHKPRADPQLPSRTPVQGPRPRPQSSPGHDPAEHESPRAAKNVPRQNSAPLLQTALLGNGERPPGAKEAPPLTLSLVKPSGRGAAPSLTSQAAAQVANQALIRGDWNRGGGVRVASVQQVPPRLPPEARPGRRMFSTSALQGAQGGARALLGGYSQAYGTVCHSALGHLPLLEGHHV

TAOK3 = TAOK3 (Homo sapiens, UniProt Q9H2K8); test: scanMAX panel and Kd follow-up; format: binding
Sequence of TAOK3 (Q9H2K8 whole entry): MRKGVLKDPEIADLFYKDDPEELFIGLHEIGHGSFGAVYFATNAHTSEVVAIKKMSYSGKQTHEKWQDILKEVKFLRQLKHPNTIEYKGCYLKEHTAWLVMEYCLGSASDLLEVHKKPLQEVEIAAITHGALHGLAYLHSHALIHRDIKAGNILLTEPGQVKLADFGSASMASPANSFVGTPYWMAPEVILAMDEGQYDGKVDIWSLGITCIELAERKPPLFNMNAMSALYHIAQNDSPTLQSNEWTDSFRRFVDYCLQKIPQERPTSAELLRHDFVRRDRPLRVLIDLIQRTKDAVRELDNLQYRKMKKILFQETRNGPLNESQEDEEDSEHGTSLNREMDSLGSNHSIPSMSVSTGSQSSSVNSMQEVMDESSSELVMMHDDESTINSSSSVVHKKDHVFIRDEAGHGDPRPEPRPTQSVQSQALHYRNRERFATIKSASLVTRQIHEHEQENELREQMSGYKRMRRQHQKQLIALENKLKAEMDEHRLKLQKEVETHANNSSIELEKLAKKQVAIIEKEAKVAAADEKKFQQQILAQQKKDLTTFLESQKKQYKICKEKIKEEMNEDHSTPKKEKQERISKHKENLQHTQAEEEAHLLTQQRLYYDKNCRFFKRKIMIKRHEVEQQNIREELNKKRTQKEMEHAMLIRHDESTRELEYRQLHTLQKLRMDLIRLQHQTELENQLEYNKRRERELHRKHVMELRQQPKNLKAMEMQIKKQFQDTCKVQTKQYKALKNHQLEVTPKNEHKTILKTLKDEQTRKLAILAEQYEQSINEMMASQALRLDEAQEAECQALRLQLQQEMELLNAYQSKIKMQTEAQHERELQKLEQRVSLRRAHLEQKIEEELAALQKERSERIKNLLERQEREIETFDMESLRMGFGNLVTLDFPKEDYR

[4] = Pharmacokinetic study in rat; conditions: in vivo, po
CDK2/cyclinA [5] = biological target: T1, CDK2/cyclinA; test: DiscoveRx KINOMEscan Kd (KdELECT); format: binding
Experimental: as §2

CDK3/cyclinE [6] = biological target: T2, CDK3/cyclinE; test: DiscoveRx KINOMEscan Kd (KdELECT); format: binding
Experimental: as §2
Target sequence in this assay (Q00526 whole entry): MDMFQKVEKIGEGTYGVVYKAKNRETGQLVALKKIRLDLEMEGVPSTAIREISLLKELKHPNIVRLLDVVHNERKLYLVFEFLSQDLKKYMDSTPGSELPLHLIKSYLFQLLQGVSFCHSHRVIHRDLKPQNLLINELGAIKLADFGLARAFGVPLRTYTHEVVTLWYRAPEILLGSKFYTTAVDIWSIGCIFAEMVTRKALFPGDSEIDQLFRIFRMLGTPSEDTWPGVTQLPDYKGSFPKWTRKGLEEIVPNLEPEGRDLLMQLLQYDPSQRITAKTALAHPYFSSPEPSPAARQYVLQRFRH

CDK4/cyclinD [7] = biological target: T8, CDK4/cyclinD (Homo sapiens, UniProt P11802); test: DiscoveRx KINOMEscan Kd (KdELECT); format: binding
T8 sequence (P11802 whole entry): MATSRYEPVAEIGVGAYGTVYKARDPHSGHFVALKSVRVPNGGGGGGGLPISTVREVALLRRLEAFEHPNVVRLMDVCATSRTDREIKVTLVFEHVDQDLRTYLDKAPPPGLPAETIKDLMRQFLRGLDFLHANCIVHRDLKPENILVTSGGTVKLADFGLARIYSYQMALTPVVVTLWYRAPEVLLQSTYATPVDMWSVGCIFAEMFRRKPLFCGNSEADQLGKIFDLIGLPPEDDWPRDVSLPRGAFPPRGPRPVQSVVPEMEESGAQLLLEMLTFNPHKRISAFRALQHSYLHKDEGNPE
T8 sequence (P24385 whole entry partner): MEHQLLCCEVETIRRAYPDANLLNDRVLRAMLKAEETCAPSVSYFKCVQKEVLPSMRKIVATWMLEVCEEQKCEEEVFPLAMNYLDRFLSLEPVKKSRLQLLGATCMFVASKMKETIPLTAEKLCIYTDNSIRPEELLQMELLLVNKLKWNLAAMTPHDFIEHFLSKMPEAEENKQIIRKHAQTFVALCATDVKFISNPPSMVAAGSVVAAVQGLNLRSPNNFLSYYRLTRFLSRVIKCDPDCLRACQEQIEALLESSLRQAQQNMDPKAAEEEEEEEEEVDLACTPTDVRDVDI
Experimental: as §2

C4-2B = test: 2D CellTiter-Glo cell viability assay; format: cell-based
Experimental: as §1

[8] = test system: 22RV1 induced neuroendocrine prostate cancer (NEPC) CDX; test: In vivo tumor efficacy study, 22Rv1 NEPC CDX
Experimental: 22Rv1 cells were cultured in RPMI supplemented with 10% FBS and 1% P/S, in a humidified incubator at 37° C. and 5% CO2. Nu/nu Balb/c homozygous mice were procured through Jackson laboratory (Strain 002019). Mice were fed Teklad irradiated (sterilized) mouse diet and bedded with Teklad irradiated (sterilized) corncob bedding from Envigo (Indianapolis, IN). Mice were housed in Optimice carousel sterile quarters with filtered air supply in disposable cages from Animal Care Systems, Inc. (Centennial, CO). A 12-hour light/12-hour dark light cycle is observed, with animal handling only taking place during the light cycle.
22Rv1 Implantation: On the day of implantation, cells were trypsinized and allowed to detach from flasks. Trypsin was then neutralized with complete media and cells were spun at 300×g. Media was aspirated and cells were re-suspended in 50:50 Cultrex RPMI (no supplementation) at a concentration of 5×10^7 cells/mL. A volume of 100 μL was injected into the right hind flank of each animal (a total of 5×10^6 cells per mouse). Cells were checked for viability using trypan blue exclusion and found to be >98% viable.
• All mice were dosed orally, and the observation duration was 21 days […]
Tumor volumes: Tumor volumes were measured by digital caliper, and volume was calculated using the formula [Width^2×Length]/2. All tumor volume measurements are recorded. […]

22Rv1 = test: Annexin V/7-AAD apoptosis assay; format: cell-based
CDK5/P21 = biological target: T9, CDK5/P21 (Homo sapiens, UniProt Q00535); test: CDK family kinase profiling, radioisotope-based assay (33P); format: biochemical; conditions: read-out: 10-dose IC50
T9 construct: purchased Reaction Biology
T9 sequence (Q00535 whole entry): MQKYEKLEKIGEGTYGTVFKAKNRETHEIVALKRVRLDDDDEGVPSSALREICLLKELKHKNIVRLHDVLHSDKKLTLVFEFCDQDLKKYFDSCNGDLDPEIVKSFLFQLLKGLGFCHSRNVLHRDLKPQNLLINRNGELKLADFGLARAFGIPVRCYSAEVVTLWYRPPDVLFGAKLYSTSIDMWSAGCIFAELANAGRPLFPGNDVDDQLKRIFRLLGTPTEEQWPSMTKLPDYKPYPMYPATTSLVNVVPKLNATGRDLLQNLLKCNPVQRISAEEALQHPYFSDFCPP
T9 sequence (Q15078 99-307 partner limits assumed): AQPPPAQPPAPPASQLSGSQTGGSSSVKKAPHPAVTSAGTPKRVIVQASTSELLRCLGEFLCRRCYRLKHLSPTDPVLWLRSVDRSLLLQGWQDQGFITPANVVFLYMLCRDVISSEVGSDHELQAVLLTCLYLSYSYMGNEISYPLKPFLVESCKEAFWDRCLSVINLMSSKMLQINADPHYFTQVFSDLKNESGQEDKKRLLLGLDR
Experimental: as §2

CDK9/cyclinT = biological target: T10, CDK9/cyclinT (Homo sapiens, UniProt P50750); test: as above; format: biochemical; conditions: cell-free, read-out: IC50 against CDK9
T10 construct: purchased Reaction Biology
Experimental: as §2

CDK7/cyclinH = biological target: T11, CDK7/cyclinH (Homo sapiens, UniProt P50613); test: as above; format: biochemical; conditions: read-out: 10-dose IC50
T11 construct: purchased Reaction Biology
T11 sequence (P50613 whole entry): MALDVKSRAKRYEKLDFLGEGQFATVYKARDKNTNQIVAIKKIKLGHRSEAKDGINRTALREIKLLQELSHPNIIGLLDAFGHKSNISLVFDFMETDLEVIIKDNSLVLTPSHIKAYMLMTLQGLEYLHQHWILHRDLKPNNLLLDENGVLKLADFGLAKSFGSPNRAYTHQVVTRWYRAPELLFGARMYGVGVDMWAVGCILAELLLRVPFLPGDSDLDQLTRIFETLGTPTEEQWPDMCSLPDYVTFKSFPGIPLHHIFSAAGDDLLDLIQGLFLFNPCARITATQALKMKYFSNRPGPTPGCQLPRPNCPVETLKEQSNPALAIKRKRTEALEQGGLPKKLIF
T11 sequence (P51946 whole entry partner): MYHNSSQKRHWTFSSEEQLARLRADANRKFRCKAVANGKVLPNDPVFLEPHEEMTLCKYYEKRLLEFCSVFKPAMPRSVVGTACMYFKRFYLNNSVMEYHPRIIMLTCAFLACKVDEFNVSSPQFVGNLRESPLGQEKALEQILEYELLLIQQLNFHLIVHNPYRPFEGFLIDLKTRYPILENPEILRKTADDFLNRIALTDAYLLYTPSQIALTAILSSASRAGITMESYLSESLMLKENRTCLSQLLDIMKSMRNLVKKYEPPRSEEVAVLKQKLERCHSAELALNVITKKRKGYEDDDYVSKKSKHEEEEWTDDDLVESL
T11 sequence (P51948 whole entry partner): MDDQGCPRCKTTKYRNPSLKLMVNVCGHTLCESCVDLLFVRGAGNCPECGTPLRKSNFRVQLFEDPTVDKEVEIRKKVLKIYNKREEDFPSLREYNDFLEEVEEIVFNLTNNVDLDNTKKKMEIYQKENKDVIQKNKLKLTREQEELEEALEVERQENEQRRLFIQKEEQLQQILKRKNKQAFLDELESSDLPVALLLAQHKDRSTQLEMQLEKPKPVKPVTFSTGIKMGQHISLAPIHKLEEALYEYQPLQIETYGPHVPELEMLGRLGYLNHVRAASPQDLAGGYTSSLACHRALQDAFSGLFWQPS
Experimental: as §2

CDK4/cyclinD [9] = biological target: T8, CDK4/cyclinD; test: as above; format: biochemical; conditions: read-out: 10-dose IC50
Experimental: as §2

Q: Which IC50 (C4-2; C4-2, 72 hours) does the source give for `CC(C)c1c2cc(-c3ccnc(N[C@H]4CC[C@H](N)C4)n3)ccc2nn1C` [Compound I-2, (1S,3S)-[3-[4-(3-isopropyl-2-methylindazol-5-yl)pyrimidin-2-yl]aminocyclopentan-1-yl]-1,3-diamine] here?
A: 28.2 nM

Q: And the IC50 (C4-2; Homo sapiens, C4-2, 72 h)?
A: 28 nM

Q: What about the colony formation (Prostate cancer cells) of the same molecule?
A: complete inhibition of colony formation

Q: And the “pCDK9, pSer2 and downstream N-MYC, C-MYC and MCL-1” value [1]?
A: reduced

Q: What about the “apoptosis by Annexin V/7-AAD staining” value (LASCPC-01; LASCPC-01) of the same molecule?
A: increased apoptosis in a dose dependent manner

Q: What about the cell death (LASCPC-01; LASCPC-01, treated for 72 hours) of the same molecule?
A: 69%

Q: What about the IC50 (CDK2/cyclinA [2]) of the same molecule?
A: 17.6 nM

Q: And the IC50 (CDK3/cyclinE [3])?
A: 115 nM

Q: And the IC50 (human P450 isozyme 2D6)?
A: 100000 nM

Q: What about the IC50 (human P450 isozyme 2C19) of the same molecule?
A: 28300 nM

Q: What about the IC50 (human P450 isozyme 3A4) of the same molecule?
A: 31100 nM

Q: And the IC50 (human P450 isozyme 2C9)?
A: 50800 nM

Q: What about the IC50 (human P450 isozyme 1A2) of the same molecule?
A: 29400 nM

Q: What about the Kd (ERK8; ERK8) of the same molecule?
A: 5.5 nM

Q: And the remaining binding at 1 µM (ERK8; ERK8, 1 μM, read-out: % of control activity)?
A: 0 to 1%

Q: What about the Kd (TAOK3; TAOK3) of the same molecule?
A: 9.2 nM

Q: What about the remaining binding at 1 µM (TAOK3; TAOK3, 1 μM, read-out: % of control activity) of the same molecule?
A: 0 to 1%

Q: What about the bioavailability [4] of the same molecule?
A: 38%

Q: And the Kd (CDK2/cyclinA [5])?
A: 30 nM

Q: And the Kd (CDK3/cyclinE [6])?
A: 31 nM

Q: And the Kd (CDK4/cyclinD [7])?
A: 22 nM

Q: What about the IC50 (C4-2B; 72 h) of the same molecule?
A: 31 nM

Q: What about the IC50 (C4-2B; 72 hours) of the same molecule?
A: 31.9 nM

Q: What about the tumor growth ([8]; 22Rv1, 30, 50, 65 mg/kg orally once daily, 21 days) of the same molecule?
A: inhibit tumor growth in a dose dependent manner

Q: And the tolerability ([8]; 22Rv1 study, >50 mg/kg dosing levels)?
A: Tolerability issues

Q: What about the “apoptosis by Annexin V/7-AAD staining” value (22Rv1; 22Rv1) of the same molecule?
A: increased apoptosis in a dose dependent manner

Q: And the cell death (22Rv1; 22Rv1, treated for 72 hours)?
A: 71%

Q: And the IC50 (CDK5/P21)?
A: 245 nM

Q: And the IC50 (CDK9/cyclinT)?
A: < 5 nM

Q: And the IC50 (CDK7/cyclinH)?
A: 119 nM

Q: What about the IC50 (CDK4/cyclinD [9]) of the same molecule?
A: 22.8 nM
